Test results published in BindingDB's records for doi:10.1016/0960-894X(96)00063-7 (1996).
pIC50: −log10 of the molar value.

Molecular target: Squalene monooxygenase (Sus scrofa)
Test: Compound was evaluated for the inhibition of pig liver microsomal squalene epoxidase.

**Q.** How did the pIC50 turn out when CCN(C/C=C/C#CC(C)(C)C)Cc1cccc(NC[Si](C)(C)c2ccccc2C)c1 [(3-{[((E)-6,6-Dimethyl-hept-2-en-4-ynyl)-ethyl-amino]-methyl}-phenyl)-[(dimethyl-o-tolyl-silanyl)-methyl]-amine] was run?
**A.** 7.00
